Entries after “also recorded” stand apart in the source; their conditions may differ.
Assays:
human PAR2 [1] = experiment: Fura-2 calcium imaging in HeLa cells transfected with PAR2 cDNA; format: cell-based; conditions: for Concentration-effect curve, calcium-dependent response (in words): peptides 1 nM - 1 mM, triplicate, Fura-2 ratiometric imaging
Experimental: Human PAR2 cDNA was cloned as an Xho I-Hind III fragment (1206 bp) into pcDNA3.1(−). 10 µg of DNA were diluted into 0.5 ml of DMEM and mixed with 0.5 ml of DMEM containing 10 µl of Lipofectamine 2000 transfection reagent and incubated at room temperature for 20 minutes. HeLa cells were grown to confluence, trypsinized and 1×10^6 cells were pelleted in a 15 ml tube by centrifugation at 1000 rpm for 5 minutes. The DMEM-Lipofectamine 2000-DNA mixture (1 ml) was added to the cell pellet, resuspended gently and incubated at room temperature for 20 minutes. Four ml of complete DMEM with 10% FBS were added to the tube, mixed by inverting the tube several times, plated into a 96-well glass bottom plate at 20,000 cells/well, and placed in a 37°C CO2 incubator. HeLa cells transfected with vector alone or salmon sperm DNA (shown in the figures) were plated as a control. The medium was aspirated two days after transfection. Fura-2 was used as a ratiometric calcium-sensitive indicator as follows. 100 µl of complete DMEM containing 2 µM of Fura-2 were added to each well and left at room temperature in the dark for 1 hr. Following loading with Fura-2, the medium was aspirated and replaced with 90 µl of HEPES-buffered saline (20 mM HEPES, 115 mM NaCl, 5.4 mM KCl, 2 mM CaCl2, 0.8 mM MgCl2, 13.8 mM glucose, pH 7.4).
Imaging was performed using a Zeiss Axiovert 200 M microscope platform equipped with a flipping filter wheel for ratiometric imaging. Axiovision software, version 4.6 was used for image analysis of the cells which were excited at 340 nm and 380 nm. Ten µl of peptide agonist were added at 20 seconds after the start of the excitation procedure. Images were taken every 5 seconds, including at zero time, during a 3-minute period or longer if required. The software later analyzed all images taken during each excitation period. Typically, ratiometric changes were measured in 10–20 cells in each image. An average of the fluorescence of the cells in each image was calculated and plotted against time in seconds.
HeLa cells transfected with PAR2 cDNA were subjected to ratiometric imaging as described above with PAR2 peptides, SLIGRL, KVDGTS, and SLIGKVDGTS in addition to the reverse peptides LRGILS and STGDVK at concentrations from 1 nM - 1 mM. Each of the concentration-dependent readings was performed in triplicate. Maximum intensities at each of the dilutions were calculated and plotted against concentration using GraphPad/PRISM software version 6.0 (Irvine, CA). Error bars represent +/−SEM.

PAR2 [2] = conditions: cited from earlier work; for PAR2 activation (in words): in vitro, plant proteases
From the text: PAR2 signaling has been implicated in the development of inflammatory and bowel diseases, asthma, itch and pain. The receptor is expressed on many types of cells including keratinocytes, sensory neurons, fibroblasts, endothelial cells, and inflammatory cells, [3]. Consistent with this broad expression, PAR2 is involved in numerous physiologic and pathophysiologic processes in response to both endogenous and exogenous proteases.

human PAR2 [3] = experiment: IP1 (IP-One HTRF) assay in PAR2-transfected HeLa cells; format: cell-based; conditions: 1 hour, 37°C; KVDGTS 100 µM, SLIGRL 10 µM, cathepsin S 1 µM; KVDGTS and SLIGRL after subtracting baseline values; cathepsin S 'in this particular experiment'
Experimental: To determine the effect of PAR2 activation on Gq stimulation, we measured IP1, a downstream metabolite of IP3, using the IP-One HTRF assay from Cis Bio, Medford, MA. HeLa cells were transfected with salmon sperm DNA or PAR2 cDNA as described above, plated in 10 cm culture dishes and incubated at 37°C with 5% CO2. After 24 hours, the cells were trypsinized, counted, plated into 96-well plates at 80,000 cells/well and incubated for another 24 hours. The medium was replaced with a stimulation buffer containing LiCl, per the instructions of the manufacturer. Ligands, including cathepsin S (1 µM), KVDGTS (100 µM) and SLIGRL (10 µM) were added to wells and incubated at 37°C for 1 hour and IP1 levels determined. This assay was performed on multiple wells containing each ligand on three occasions. Error bars represent SEM.

[4] = tested on: PKC (βII Ser660) phosphorylation in PAR2-transfected HeLa cells; experiment: Western blot for p-PKC (Ser660) in PAR2-transfected HeLa cells; format: cell-based, human; conditions: 10 minutes, room temperature; SLIGRL 10 µM, SLIGKVDGTS 10 µM, KVDGTS 100 µM, cathepsin S 1 µM
Experimental: HeLa cells were transfected with PAR2 plasmid DNA as described above. Untransfected HeLa cells were plated as a control. Forty-eight hours after transfection, cells were rinsed with PBS three times. Transfected HeLa cells were incubated with either SLIGRL (10 µM), SLIGKVDGTS (10 µM), KVDGTS (100 µM), or cathepsin S (1 µM) at room temperature for 10 minutes. Untransfected HeLa cells were treated with SLIGRL (10 µM) in a similar manner. A subset of transfected HeLa cells remained untreated and served as a negative control. After incubation, cells were harvested, pelleted and lysed by sequential freeze-thaw cycles. Cell lysates were centrifuged at 4°C for 15 minutes. Supernatants were collected and protein concentrations were determined by Bradford assay. Equal amounts of cell lysates were loaded onto NuPAGE Novex Bis-Tris mini gels, electrophoresed and transferred to nitrocellulose membranes using standard protocols. The blot was first probed with rabbit anti-phospho-PKC (βII Ser660) antibody (Cell Signalling Technology, Danvers, MA), and later reprobed with a mouse anti-actin antibody to identify the control actin band at 42 kDa. Primary antibodies were labeled with HRP-conjugated donkey anti-rabbit antibody and HRP-conjugated donkey anti-mouse antibody, respectively, followed by detection of the position of the antigen on the blot.

[5] = tested on: cathepsin S in keratinocytes; conditions: cited from earlier work
From the text: We have identified a new peptide ligand generated by cathepsin S cleavage of PAR2. […] Our findings support a mechanism by which an N-terminal tethered ligand generated by cathepsin S cleavage might propagate PAR2 signaling in keratinocytes, or other target cells, surrounding a primary focus of inflammation. A possible scenario with respect to cutaneous inflammation could be as follows: IFN-γ, ...

PAR2 [6] = conditions: cited from earlier work
From the text: Proteases can activate PARs but it has been hypothesized that they can also inactivate them. […] As the cathepsin S cleavage sites identified here are downstream o ...

cathepsin S = experiment: Cathepsin S digestion of the human PAR2 N-terminal peptide (LC/MS/MS); format: biochemical; conditions: cathepsin S 1 µM, pH 7.0, 37°C, 20 minutes; MS/MS sequencing
Experimental: Recombinant human cathepsin S was produced as follows. The human cathepsin S proprotein coding region was isolated by PCR using the forward and reverse primers […] CCTG and […] and a template of plasmid DNA containing the entire coding sequence of human cathepsin S. The PCR product was cut with Nco I and Xho I, and cloned into the pTYB4 expression vector from New England Biolabs for expression in E.coli. Cells were grown in LB medium induced with 0.3 mM IPTG, harvested by centrifugation, resuspended in lysis buffer A (0.5 M NaCl, 0.05 M Tris, 5 mM EDTA, pH 8.0) and lysed in a French press. The lysate was centrifuged and the protein was found predominantly in inclusion bodies which were dissolved in buffer B (10 mM DTT and 8 M urea), and refolded in the presence of buffer B containing 0.7 M L-arginine, 0.01 M glutathione, 0.001 M glutathione disulfide, and 0.005 M EDTA as described. […] The specific activity of cathepsin S was assayed using Z-VVR-AMC in fluorimetric and Z-FR-pNA in colorimetric assays[22] and determined to be 10,000 mU/mg protein.
A peptide comprising the N-terminus of PAR2, […], was dissolved in 50 mM Tris, pH 7.0, 0.1 M NaCl, 0.1 mM EDTA, and 0.01% Tween-20 to a concentration of 100 mM. […] The reaction samples were analyzed by the Harvard Microchemistry & Proteomics Analysis Facility (Cambridge, MA). […]

Substance: SLIGRL [positive control, reference compound]
- calcium response to the substance as second agent after protease (in words) (human PAR2 [1]; PAR2-transfected HeLa, after cathepsin S, papain or trypsin, up to 60 minutes, room temperature): failed to induce a calcium response at any time up to 60 minutes
- Concentration-effect curve, calcium-dependent response (in words) (human PAR2 [1]): curves for SLIGRL and SLIGKVDGTS overlapped
- concentration at which active/effective (human PAR2 [1]; summary of these studies (discussion)): 10 µM
- intracellular calcium mobilization (in words) (PAR2 [2]; primary keratinocytes and various cell lines, no reference given): provokes transient intracellular calcium mobilization
- IP1 level (human PAR2 [3]): ~66 nM
- PKC Ser660 phosphorylation (in words) [4]: weaker effect

Substance: ficin
- PAR2 activation (in words) (PAR2 [2]): supporting activation

Substance: bromelain
- PAR2 activation (in words) (PAR2 [2]): supporting activation

Substance: IFN-γ: mediator of inflammation
- induction of cathepsin S (in words) [5]: potent inducer of cathepsin S in keratinocytes

Substance: trypsin [reference compound]
- effect as first agent on calcium response to second agent (in words) (human PAR2 [1]; PAR2-transfected HeLa, KVDGTS 100 µM, cathepsin S 2 µM, papain 2 µM, trypsin 10 nM, second agent after up to 60 minutes, room temperature): failed to induce a calcium response at any time up to 60 minutes
- PAR2 cleavage site preference (in words) (PAR2 [6]): cleave PAR2 primarily following arginine residues

Substance: SLIGKVDGTS [decapeptide which encompasses SLIGKV and KVDGTS]
- Concentration-effect curve, calcium-dependent response (in words) (human PAR2 [1]): curves for SLIGRL and SLIGKVDGTS overlapped; also recorded: activity comparable to that of SLIGRL
- PKC Ser660 phosphorylation (in words) [4]: weaker effect

Substance: STGDVK [KVDGTS reverse peptide, reference compound]
- Concentration-effect curve, calcium-dependent response (in words) (human PAR2 [1]): not active

Substance: KVDGTSHVTGKGVT
- cleavage points (in words) (cathepsin S): next most common sequence results in G at the P1 position

Substance: LRGILS [reverse peptide of SLIGRL, negative control, reference compound]
- Concentration-effect curve, calcium-dependent response (in words) (human PAR2 [1]): not active

Source: article PMC4070910, “Cathepsin S Signals via PAR2 and Generates a Novel Tethered Ligand Receptor Agonist” (PLoS ONE, 2014)
